According to patent US20110275673A1, “INHIBITORS OF SPHINGOSINE KINASE 1” (priority 2008, published 2011):
pIC50: −log10 of the molar value. Structures can show the parent of a compound that is named as a salt.

Molecular target: T1, SPHK-1 (Homo sapiens, UniProt Q9NYA1)
T1 construct: purchased BPS Bioscience
Test: Reporter Assay: sphingosine kinase conversion of fluorescein-labeled sphingosine, read on Lab Chip 3000
Type: biochemical
Conditions: 2 μM Fl-sphingosine, 25 μM ATP, 300 ng/ml SK1, 1 hour at room temperature; from percent conversion of substrate to product; read-out: SPHK-1 IC50 (n =)
Procedure: Sphingosine kinase is a 49 kDa enzyme that catalyzes the formation of sphingosine-1-phosphate (S-1-P) from sphingosine.
Fluorescein labeled sphingosine was obtained from Echelon Biosciences (S-100F). Buffer reagents (1 M Hepes, 10 triton x-100, 100% glycerol, dithiothreitol 1 M MgCl2, ATP, 500 mM EDTA and DMSO) were purchased from Sigma. Coating reagent (CR-3), was obtained from Caliper Life Sciences.
0.05% Triton X-100, 2.5% glycerol, 0.1% CR-3, and 0,6% DMSO. Termination butler included 100 mM Hepes (pH 7.5), 40 mM EDTA, 0.05% Triton X-100, 2.5% glycerol, 0.3% CR-3, and 0.6% DMSO.
All assay components were made in reaction buffer. […] The assaylvas allowed to incubate at room temperature sealed and protected from light for 1 hour.
After 1 hour, 10 μl of termination buffer was added to terminate, the reaction, and the plate was read on a Lab Chip 3000. The plate was read for one cycle. The Lab Chip separated substrate and product based on charge.
Results were calculated based on percent conversion of substrate to product using the following formula: […]
Percent inhibition and IC50's for compounds of the invention were determined using the percent conversion values obtained horn the Lab Chip.

T1 sequence (Q9NYA1 whole entry): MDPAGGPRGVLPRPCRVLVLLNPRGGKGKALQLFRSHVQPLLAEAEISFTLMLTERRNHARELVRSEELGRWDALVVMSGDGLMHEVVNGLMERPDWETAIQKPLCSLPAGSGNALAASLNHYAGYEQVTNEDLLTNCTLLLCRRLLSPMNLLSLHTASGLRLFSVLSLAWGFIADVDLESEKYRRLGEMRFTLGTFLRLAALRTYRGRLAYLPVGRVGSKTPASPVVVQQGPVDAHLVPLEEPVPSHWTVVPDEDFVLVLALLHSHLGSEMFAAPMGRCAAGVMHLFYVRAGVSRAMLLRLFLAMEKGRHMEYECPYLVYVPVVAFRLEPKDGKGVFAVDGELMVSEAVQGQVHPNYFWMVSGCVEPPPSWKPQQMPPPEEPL

Structure (SMILES)	pIC50
C[C@H](NC(=O)[C@H]1NCC[C@@H]1O)c1ccc(-c2noc(CCC3CCC3)n2)cc1 [Example 100, (2S,3S)—N—((S)-1-(4-(5-(2-Cyclobutylethyl)-1,2,4-oxadiazol-3-yl)phenyl)ethyl)-3-hydroxypyrrolidine-2-carboxamide hemi tartrate salt]	7.23
CCCCc1ccc(-c2nc(-c3ccc(CNC(=O)[C@H]4NCC[C@@H]4O)cc3)no2)cc1 [Example 82, (2S,3S)—N-(4-(5-(4-Butylphenyl)-1,2,4-oxadiazol-3-yl)benzyl)-3-hydroxypyrrolidine-2-carboxamide]	5.43
CCCCCCSCCc1ccc(NC(=O)[C@H]2NCC[C@@H]2O)cc1 [Example 40, (2S,3S)-N-(4-(2-(hexylthio)ethyl)phenyl)-3-hydroxy-pyrrolidine-2-carboxamide]	8.15
CCCCCCCCOCc1ccc(NC(=O)[C@H]2NCC[C@@H]2O)cc1 [Example 21, (2S,3S)-3-Hydroxy-N-(4-(octyloxymethyl)phenyl) pyrrolidine-2-carboxamide]	8.31
CCCCCCCCc1cc2cc(CNC(=O)[C@H]3NCC[C@@H]3O)c(F)cc2o1 [Example 119, (2S,3S)—N-((6-Fluoro-2-octylbenzofuran-5-yl)methyl)-3-hydroxypyrrolidine-2-carboxamide]	6.15
CCCCCCCCc1ccc(NC(=O)[C@@H](N)[C@@H](C)O)cc1 [Example 29, (2S,3R)-2-Amino-3-hydroxy-N-(4-octylphenyl) butanamide]	6.06
CCCCC(=O)CCCCCc1ccc(NC(=O)[C@@H](N)[C@@H](C)O)cc1 [Example 33, (2S,3R)-2-amino-3-hydroxy-N-(4-(6-oxodecyl)phenyl) butanamide]	5.21
CCCCCCCCc1ccc(-c2ccc(NC(=O)[C@@H](N)[C@@H](C)O)cc2)cc1 [Example 59, (2S,3R)-2-Amino-3-hydroxy-N-(4′-octylbiphenyl-4-yl)butanamide]	5.96

Further molecules by rising pIC50, results first:

pIC50	Structure (SMILES)
5.14	O=C(NCc1ccc(-n2cc(CCc3ccc(F)cc3)nn2)cc1)[C@H]1NCC[C@@H]1O [Example 68, (2S,3S)—N-(4-(4-(4-Fluorophenethyl)-1H-1,2,3-triazol-1-yl)benzyl)-3-hydroxypyrrolidine-2-carboxamide]
5.30	CCCCCCCCc1ccc(NC(=O)[C@H](N)CO)cc1 [Example 3, (R)-2-Amino-3-hydroxy-N-(4-octylphenyl) propanamide]
5.49	C[C@@H](O)[C@H](N)C(=O)Nc1ccc(CCCCCOc2ccc(F)cc2)cc1 [Example 22, (2S,3R)-2-Amino-N-(4-(5-(4-fluorophenoxy)pentyl)phenyl)-3-hydroxy-butanamide]
5.64	CCCCCCCCc1ccc(-c2ccc(NC[C@@H](N)[C@@H](C)O)cc2)cc1 [Example 60, (2R,3R)-3-Amino-4-(4′-octylbiphenyl-4-ylamino)butan-2-ol]
5.92	O=C(NCc1ccc2oc(C3CCCCC3)cc2c1)[C@H]1NCC[C@@H]1O [Example 115, (2S,3S)—N-((2-Cyclohexylbenzofuran-5-yl)methyl)-3-hydroxypyrrolidine-2-carboxamide]
6.00	CCCCCCOCc1ccc(NC(=O)[C@H]2NCC[C@@H]2O)cc1 [Example 19, (2S,3S)-N-(4-(Hexyloxy-methyl)phenyl)-3-hydroxy-pyrrolidine-2-carboxamide]
6.34	CCCCCCCCOc1ccc(NC(=O)[C@@H](N)[C@@H](C)O)cc1 [Example 18, (2S,3R)-2-Amino-3-hydroxy-N-(4-(octyloxy)phenyl) butanamide]
6.82	CC(C)CCCCCCc1ccc(NC(=O)[C@@H](N)[C@@H](C)O)cc1 [Example 16, (2S,3R)-2-Amino-3-hydroxy-N-(4-(7-methyloctyl)phenyl) butanamide]
7.15	CCCCCCCCc1cnc(-c2ccc(CNC(=O)[C@H]3NCC[C@@H]3O)cc2)s1 [Example 106, (2S,3S)-3-hydroxy-N-(4-(5-octylthiazol-2-yl)benzyl)pyrrolidine-2-carboxamide]
7.31	CCCCCCCCc1nc(-c2ccc(CNC(=O)[C@H]3NCC[C@@H]3O)cc2)cs1 [Example 103, (2S,3S)-3-hydroxy-N-(4-(2-octylthiazol-4-yl)benzyl)pyrrolidine-2-carboxamide]
